# In the supplement of paper PMC11208160:
# Experiment: recombinant UMI read abundance after kanamycin selection (control-corrected) (log10(CPM+1)); higher = more efficient recombination; extreme values may be limits of the assay; sequences stand for … in AGTGCAGAGAAAATCGGCCAGTTTTCTCTGCCTGCAGTCCGCATGCCGTGGGACCCCTTGGGTTCTAACCTGTTGCCTAGATTTATGCAGCGGACTGCCTTTCTCCCAAAGTGATAAACCGG…AGGTTGGTTTCACT; site = the 11-nt donor
# Procedure, shortened: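 Values are reported as log10(CPM+1), obtained by converting sequencing counts to CPM, averaging replicates and scaling by control-derived factors. The counts came from recombinant UMIs amplified by PCR across the donor–target junction. These UMIs came from a pooled Escherichia coli screen of donor and donor-binding-loop pairs for the IS621 bridge recombinase, plated with IPTG (0.07 mM) plus kanamycin or left unselected, in two replicates each.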
# 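Further: IS621 bridge recombinase in Escherichia coli cells against a fixed T5 target plasmid.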
row,Sequence,recombinant UMI read abundance (log10)
1,CTAGTATCATGGACCGGTTTTCCCGGTAATCCGTATTTGAC (site CAAGTATCTCT),0.473
2,CTAGTATCATGGACCGGTTTTCCCGGTAATCCGTATTTGAC (site CAAGTATCTGA),0
3,CTAGTATCATGGACCGGTTTTCCCGGTAATCCGTATTTGAC (site CAAGTATCTGT),2.47
4,CTAGTATCATGGACCGGTTTTCCCGGTAATCCGTATTTGAC (site CAAGTCTCTGT),0
5,CTAGTATCATGGACCGGTTTTCCCGGTAATCCGTATTTGAC (site CACGTATCTGT),0.0166
6,CTAGTATCATGGACCGGTTTTCCCGGTAATCCGTATTTGAC (site CCACTATCTGT),0
7,CTAGTATCATGGACCGGTTTTCCCGGTAATCCGTATTTGAC (site CCAGCATCTGT),0.00896
8,CTAGTATCATGGACCGGTTTTCCCGGTAATCCGTATTTGAC (site CCAGTAGCTGT),0
9,CTAGTATCATGGACCGGTTTTCCCGGTAATCCGTATTTGAC (site CCAGTATCTGG),0
10,CTAGTATCATGGACCGGTTTTCCCGGTAATCCGTATTTGAC (site CCAGTATCTGT),2.69
11,CTAGTATCATGGACCGGTTTTCCCGGTAATCCGTATTTGAC (site CCAGTATCTTT),0.412
12,CTAGTATCATGGACCGGTTTTCCCGGTAATCCGTATTTGAC (site CCAGTTTCTGT),0
13,CTAGTATCATGGACCGGTTTTCCCGGTAATCCGTATTTGAC (site CCGGTATCTGT),0.281
14,CTAGTATCATGGACCGGTTTTCCCGGTAATCCGTATTTGAC (site CGAGGATCTGT),0
15,CTAGTATCATGGACCGGTTTTCCCGGTAATCCGTATTTGAC (site CGAGTACCTGT),0
16,CTAGTATCATGGACCGGTTTTCCCGGTAATCCGTATTTGAC (site CGAGTATCTAT),0
17,CTAGTATCATGGACCGGTTTTCCCGGTAATCCGTATTTGAC (site CGAGTATCTGC),0
18,CTAGTATCATGGACCGGTTTTCCCGGTAATCCGTATTTGAC (site CGAGTATCTGT),0.849
19,CTAGTATCATGGACCGGTTTTCCCGGTAATCCGTATTTGAC (site CGAGTGTCTGT),0
20,CTAGTATCATGGACCGGTTTTCCCGGTAATCCGTATTTGAC (site CGATTATCTGT),0
21,CTAGTATCATGGACCGGTTTTCCCGGTAATCCGTATTTGAC (site CGTGTATCTGT),0
22,CTAGTATCATGGACCGGTTTTCCCGGTAATCCGTATTTGAC (site CTAAAATCTGT),0
23,CTAGTATCATGGACCGGTTTTCCCGGTAATCCGTATTTGAC (site CTAATAACTGT),0
24,CTAGTATCATGGACCGGTTTTCCCGGTAATCCGTATTTGAC (site CTAATATCTCT),0.764
25,CTAGTATCATGGACCGGTTTTCCCGGTAATCCGTATTTGAC (site CTAATATCTGA),0

row,Sequence,recombinant UMI read abundance (log10)
1,CTAGTATCATGGACCGGTTTTCCCGGTAATCCGTATTTGAC (site CTAATATCTGT),1.63
2,CTAGTATCATGGACCGGTTTTCCCGGTAATCCGTATTTGAC (site CTAATCTCTGT),0
3,CTAGTATCATGGACCGGTTTTCCCGGTAATCCGTATTTGAC (site CTACCATCTGT),0
4,CTAGTATCATGGACCGGTTTTCCCGGTAATCCGTATTTGAC (site CTACTAGCTGT),0
5,CTAGTATCATGGACCGGTTTTCCCGGTAATCCGTATTTGAC (site CTACTATCTGG),0
6,CTAGTATCATGGACCGGTTTTCCCGGTAATCCGTATTTGAC (site CTACTATCTGT),0.925
7,CTAGTATCATGGACCGGTTTTCCCGGTAATCCGTATTTGAC (site CTACTATCTTT),0.0334
8,CTAGTATCATGGACCGGTTTTCCCGGTAATCCGTATTTGAC (site CTACTTTCTGT),0
9,CTAGTATCATGGACCGGTTTTCCCGGTAATCCGTATTTGAC (site CTAGAAACTGT),0
10,CTAGTATCATGGACCGGTTTTCCCGGTAATCCGTATTTGAC (site CTAGAATCTCT),0
11,CTAGTATCATGGACCGGTTTTCCCGGTAATCCGTATTTGAC (site CTAGAATCTGA),0
12,CTAGTATCATGGACCGGTTTTCCCGGTAATCCGTATTTGAC (site CTAGAATCTGT),0.992
13,CTAGTATCATGGACCGGTTTTCCCGGTAATCCGTATTTGAC (site CTAGACTCTGT),0
14,CTAGTATCATGGACCGGTTTTCCCGGTAATCCGTATTTGAC (site CTAGCAGCTGT),0
15,CTAGTATCATGGACCGGTTTTCCCGGTAATCCGTATTTGAC (site CTAGCATCTGG),0
16,CTAGTATCATGGACCGGTTTTCCCGGTAATCCGTATTTGAC (site CTAGCATCTGT),1.59
17,CTAGTATCATGGACCGGTTTTCCCGGTAATCCGTATTTGAC (site CTAGCATCTTT),0.0133
18,CTAGTATCATGGACCGGTTTTCCCGGTAATCCGTATTTGAC (site CTAGCTTCTGT),0
19,CTAGTATCATGGACCGGTTTTCCCGGTAATCCGTATTTGAC (site CTAGGACCTGT),0
20,CTAGTATCATGGACCGGTTTTCCCGGTAATCCGTATTTGAC (site CTAGGATCTAT),0.00421
21,CTAGTATCATGGACCGGTTTTCCCGGTAATCCGTATTTGAC (site CTAGGATCTGC),0
22,CTAGTATCATGGACCGGTTTTCCCGGTAATCCGTATTTGAC (site CTAGGATCTGT),0.927
23,CTAGTATCATGGACCGGTTTTCCCGGTAATCCGTATTTGAC (site CTAGGGTCTGT),0
24,CTAGTATCATGGACCGGTTTTCCCGGTAATCCGTATTTGAC (site CTAGTAACTCT),0.0077
25,CTAGTATCATGGACCGGTTTTCCCGGTAATCCGTATTTGAC (site CTAGTAACTGA),0

row,Sequence,recombinant UMI read abundance (log10)
1,CTAGTATCATGGACCGGTTTTCCCGGTAATCCGTATTTGAC (site CTAGTAACTGT),1.82
2,CTAGTATCATGGACCGGTTTTCCCGGTAATCCGTATTTGAC (site CTAGTACCTAT),0.00604
3,CTAGTATCATGGACCGGTTTTCCCGGTAATCCGTATTTGAC (site CTAGTACCTGC),0
4,CTAGTATCATGGACCGGTTTTCCCGGTAATCCGTATTTGAC (site CTAGTACCTGT),0
5,CTAGTATCATGGACCGGTTTTCCCGGTAATCCGTATTTGAC (site CTAGTAGCTGG),0
6,CTAGTATCATGGACCGGTTTTCCCGGTAATCCGTATTTGAC (site CTAGTAGCTGT),0
7,CTAGTATCATGGACCGGTTTTCCCGGTAATCCGTATTTGAC (site CTAGTAGCTTT),0.0305
8,CTAGTATCATGGACCGGTTTTCCCGGTAATCCGTATTTGAC (site CTAGTATCTAC),0.564
9,CTAGTATCATGGACCGGTTTTCCCGGTAATCCGTATTTGAC (site CTAGTATCTAT),2.78
10,CTAGTATCATGGACCGGTTTTCCCGGTAATCCGTATTTGAC (site CTAGTATCTCA),0.333
11,CTAGTATCATGGACCGGTTTTCCCGGTAATCCGTATTTGAC (site CTAGTATCTCT),1.67
12,CTAGTATCATGGACCGGTTTTCCCGGTAATCCGTATTTGAC (site CTAGTATCTGA),1.14
13,CTAGTATCATGGACCGGTTTTCCCGGTAATCCGTATTTGAC (site CTAGTATCTGC),2.62
14,CTAGTATCATGGACCGGTTTTCCCGGTAATCCGTATTTGAC (site CTAGTATCTGG),1.48
15,CTAGTATCATGGACCGGTTTTCCCGGTAATCCGTATTTGAC (site CTAGTATCTGT),2.66
16,CTAGTATCATGGACCGGTTTTCCCGGTAATCCGTATTTGAC (site CTAGTATCTTG),0.0198
17,CTAGTATCATGGACCGGTTTTCCCGGTAATCCGTATTTGAC (site CTAGTATCTTT),2.1
18,CTAGTATCATGGACCGGTTTTCCCGGTAATCCGTATTTGAC (site CTAGTCACTGT),0
19,CTAGTATCATGGACCGGTTTTCCCGGTAATCCGTATTTGAC (site CTAGTCTCTCT),0.0131
20,CTAGTATCATGGACCGGTTTTCCCGGTAATCCGTATTTGAC (site CTAGTCTCTGA),0
21,CTAGTATCATGGACCGGTTTTCCCGGTAATCCGTATTTGAC (site CTAGTCTCTGT),1.18
22,CTAGTATCATGGACCGGTTTTCCCGGTAATCCGTATTTGAC (site CTAGTGCCTGT),0
23,CTAGTATCATGGACCGGTTTTCCCGGTAATCCGTATTTGAC (site CTAGTGTCTAT),0.00843
24,CTAGTATCATGGACCGGTTTTCCCGGTAATCCGTATTTGAC (site CTAGTGTCTGC),0
25,CTAGTATCATGGACCGGTTTTCCCGGTAATCCGTATTTGAC (site CTAGTGTCTGT),2.01
